This is an account of results in the NIST ThermoML archive (doi:10.1021/je400246s).

For data set [1] the following is noted: Crystal; DTA.
A short description of data set [2]: Molar enthalpy of transition or fusion. The conditions noted are these: Crystal; DSC.

Numbers after ± are expanded uncertainties.

Consider `O=C1c2ccccc2C(=O)c2c(Cl)cccc21` [1-chloroanthraquinone], for which the Normal melting temperature in data set [1] was 162.1 ± 1.1 °C. Besides, the “Molar enthalpy of transition or fusion” value in data set [2] came out at 6.99 ± 0.454 kcal/mol.
The like results for `O=C(O)c1cccc(Cl)c1C(=O)c1ccccc1` [2-benzoyl-3-chlorobenzoic acid] were, in that order, 233.2 ± 1.1 °C and 8.49 ± 0.526 kcal/mol.
